Measurements as given in US20210130460A1, “ANTI-CD19 THERAPY IN COMBINATION WITH LENALIDOMIDE FOR THE TREATMENT OF LEUKEMIA OR LYMPHOMA” (MORPHOSYS AG, priority 2019, published 2021).
Read-outs that look alike come from different tables or passages of the source.

Experiments:
[1] = tested on: relapsed or refractory DLBCL; settings: cited from earlier work
[2] = L-MIND phase 2 study: safety (adverse events)
Procedure: MOR00208 was administered intravenously at a dose of 12 mg/kg, over approximately 2 hours. For cycles 1 to 3, MOR00208 was administered weekly on days 1, 8, 15, and 22; an additional loading dose was administered on day 4 of cycle 1. […] Patients self-administered lenalidomide orally, starting with 25 mg daily on days 1-21 of each 28-day cycle. A step-wise dose reduction (decrease by 5 mg/day in each step, only once per cycle, without re-escalation) of lenalidomide was permitted in case of protocol-defined toxicities.
Efficacy analyses are based on the full analysis set comprising all patients who received at least one dose of both MOR00208 and lenalidomide; safety analyses were based on those who received at least one dose of either study medication.

Row | Molecule | Objective response rate ([1]; prior studies in similar populations) | Objective response rate ([1]; single-agent, relapsed or refractory DLBCL (Ann. Oncol. 29, 1266-1272, 2018)) | Grade 3 or 4 neutropenia ([2]; MOR00208 monotherapy after discontinuation of lenalidomide, 6/51 patients) | Adverse events of grade 3 or 4 ([2]; after lenalidomide discontinuation, 15/51 patients)
1 | Nc1cccc2c1CN(C1CCC(=O)NC1=O)C2=O (stereo not shown) [lenalidomide] | 28% | – | – | –
2 | MOR00208: Fc-enhanced humanized anti-CD19 monoclonal antibody, sequences in Table 1 (SEQ ID NO: 1-12) | – | 26% | 11.8% | 29.4%
